Experimental data as given in US20140308733A1, “METHOD FOR INDUCING GERMINATION OF SPORE FORMING BACTERIUM” (CALPIS CO., LTD., priority 2011, published 2014).

Tests used:
Type in all cases: cell-based
[1] = test system: Aeribacillus pallidus TK6004 (FERM BP-08597); experiment: Germination induction, change of turbidity (630 nm) of spore suspension; settings: 300 ppm, 37° C., 150 rpm
Procedure: (§1) It is possible to determine whether spores have germinated, after measuring an OD 630 value (turbidity at 630 nm) of the liquid culture, based on decrease in the value (Literature: Microbiology, (1950), 4, 3, 330-338). Briefly, bacterial cells after culturing are washed with distilled water and diluted with distilled water to OD 630=1.0, which is then mixed with an equal volume of a germination induction solution, and the turbidity at 630 nm is measured by a UV spectrophotometer at room temperature.
(§2) TS culture media (Difco, Trypticase Soy Broth) were inoculated respectively with 11 strains listed in Table 1 and cultured at 50° C. with respect to Geobacillus stearothermophilus NBRC13737 and Aeribacillus pallidus TK6004 (FERM BP-08597), and at 37° C. with respect to the other 9 strains, until respective colonies were established. Then with respect to each of 11 strains, a loop full of a single colony was scratched by a platinum loop and suspended in 500 μL of sterilized water. In 1000 g of water was dissolved 8.0 g of a nutrient agar culture medium (Difco, Nutrient Broth), followed by high pressure steam sterilization (121° C., 15 min) to prepare a plate medium. The nutrient agar culture medium was smeared with each 100 μL of the suspension and cultured at 37° C. for 3 days.
(§3) Then, bacterial cells were suspended using a platinum loop in 500 μL of sterilized water, and the bacterial suspension was subjected to a heat shock at 65° C. for 35 min. Each 100 μL of the heat-shocked bacterial suspension and a not-heat-shocked bacterial suspension were smeared on the TS culture media respectively and cultured at 50° C. or 37° C. for 1 day. As the results of the cultures, colony formation was confirmed also with respect to the heat-shocked bacterial suspensions, to confirm that spores were formed for all of 11 strains. Further, since the bacteria were not stained by Gram staining, it was reconfirmed that spores were formed.
(§4) After confirming the spore formation, the bacterial cells were collected by a bacteria spreader, suspended in 10 mL of sterilized distilled water, and then centrifuged (8340×g, 4° C., 15 min). The supernatant was removed and thereafter the bacterial cells were washed twice with 10 mL of sterilized water. After washing, the bacterial cells were suspended in 5 mL of sterilized water, and the suspension was filtrated by sterilized Kimwipes. The filtrate was centrifuged (8340×g, 4° C., 15 min) to remove the supernatant, and the rest was adjusted to the turbidity (at 630 nm) of 1.0 with sterilized water.
(§5) After dissolving with stirring using a stirring rod with a propeller, filtration sterilization (0.45 μm filter) was conducted to prepare each 600 ppm-solution.
(§6) Five hundred (500) μL of each solution and 500 μL of each bacterial spore suspension were mixed. […] Defining the time point of mixing as the reaction initiation (0 min), and continuing shaking (150 rpm) at 37° C., the turbidity (630 nm) was measured at 10, 20, 30, 40, 50, 60, 90, 120, and 180 min after the reaction initiation.
(§7) Since the turbidity at 630 nm decreases by germination of spores, it has been known that the turbidity at 630 nm can be used to determine the germination rate.

[2] = test system: Bacillus amyloliquefaciens (NBRC 3022); experiment: as above; settings: 300 ppm, 37° C., 150 rpm
Procedure: as §1, §2, §3, §4, §5, §6, §7

[3] = test system: Bacillus amyloliquefaciens (NBRC 3032); experiment: as above; settings: 300 ppm, 37° C., 150 rpm
Procedure: as §1, §2, §3, §4, §5, §6, §7

[4] = test system: Bacillus coagulans (NBRC 12583); experiment: as above; settings: 300 ppm, 37° C., 150 rpm
Procedure: as §1, §2, §3, §4, §5, §6, §7

[5] = test system: Bacillus coagulans (NBRC 3887); experiment: as above; settings: 300 ppm, 37° C., 150 rpm
Procedure: as §1, §2, §3, §4, §5, §6, §7

[6] = test system: Bacillus licheniformis (NBRC 12195); experiment: as above; settings: 300 ppm, 37° C., 150 rpm
Procedure: as §1, §2, §3, §4, §5, §6, §7

[7] = test system: Bacillus subtilis C-3102 (FERM BP-1096); experiment: as above; settings: 300 ppm, 37° C., 150 rpm
Procedure: as §1, §2, §3, §4, §5, §6, §7

[8] = test system: Bacillus subtilis sp spizizenii (NBRC 101239); experiment: as above; settings: 300 ppm, 37° C., 150 rpm
Procedure: as §1, §2, §3, §4, §5, §6, §7

[9] = test system: Geobacillus stearothermophilus (NBRC 13737); experiment: as above; settings: 300 ppm, 37° C., 150 rpm
Procedure: as §1, §2, §3, §4, §5, §6, §7

[10] = test system: Bacillus licheniformis (NBRC 14206); experiment: as above; settings: 300 ppm, 37° C., 150 rpm
Procedure: as §1, §2
Then, bacterial cells were suspended using a platinum loop in 500 μL of sterilized water, and the bacterial suspension was subjected to a heat shock at 65° C. for 35 min. Each 100 μL of the heat-shocked bacterial suspension and a not-heat-shocked bacterial suspension were smeared on the TS culture media respectively and cultured at 50° C. or 37° C. for 1 day.
as §4, §5, §6, §7

[11] = test system: Bacillus subtilis C-3102 (FERM BP-1096); experiment: Germination induction by ferulic acid, vanillic acid or p-coumaric acid at 300 ppm, turbidity change (Example 3); settings: for turbidity (630 nm): 37° C., 150 rpm
Procedure: In each 500 mL of distilled water heated to 70° C. was added 0.3 g of ferulic acid, vanillic acid, or p-coumaric acid. After dissolving with stirring using a stirring rod with a propeller, filtration sterilization (0.45 μm filter) was conducted to prepare each 600 ppm-solution.
Next, 500 μL aliquots of bacterial suspension of Bacillus subtilis C-3102 (FERM BP-1096) prepared by a similar method as in Example 1 were mixed with 500 μL of each of the ferulic acid, vanillic acid, and p-coumaric acid solutions, and the mixtures were adjusted to 300 ppm of ferulic acid, vanillic acid, or p-coumaric acid concentration. Defining the time point of mixing as the reaction initiation (0 min), and continuing shaking (150 rpm) at 37° C., the turbidity (630 nm) was measured at 10, 20, 30, 40, 50, 60, 90, 120, and 180 min after the reaction initiation.

[12] = 0 min after reaction initiation
[13] = 10 min after reaction initiation
[14] = 20 min after reaction initiation
[15] = 30 min after reaction initiation
[16] = 40 min after reaction initiation
[17] = 50 min after reaction initiation
[18] = 60 min after reaction initiation
[19] = 90 min after reaction initiation
[20] = 120 min after reaction initiation
[21] = 180 min after reaction initiation

SMILES: C[C@H](N)C(=O)O [L-Ala, L-alanine, reference compound]
- turbidity (630 nm) [1, 12]: 0.488
- turbidity (630 nm) [1, 13]: 0.470
- turbidity (630 nm) [1, 14]: 0.463
- turbidity (630 nm) [1, 15]: 0.457
- turbidity (630 nm) [1, 16]: 0.451
- turbidity (630 nm) [1, 17]: 0.445
- turbidity (630 nm) [1, 18]: 0.441
- turbidity (630 nm) [1, 19]: 0.416
- turbidity (630 nm) [1, 20]: 0.404
- turbidity (630 nm) [1, 21]: 0.370
- turbidity (630 nm) [2, 12]: 0.565
- turbidity (630 nm) [2, 13]: 0.505
- turbidity (630 nm) [2, 14]: 0.506
- turbidity (630 nm) [2, 15]: 0.461
- turbidity (630 nm) [2, 16]: 0.495
- turbidity (630 nm) [2, 17]: 0.504
- turbidity (630 nm) [2, 18]: 0.506
- turbidity (630 nm) [2, 19]: 0.490
- turbidity (630 nm) [2, 20]: 0.505
- turbidity (630 nm) [2, 21]: 0.493
- turbidity (630 nm) [3, 12]: 0.517
- turbidity (630 nm) [3, 13]: 0.418
- turbidity (630 nm) [3, 14]: 0.362
- turbidity (630 nm) [3, 15]: 0.347
- turbidity (630 nm) [3, 16]: 0.333
- turbidity (630 nm) [3, 17]: 0.315
- turbidity (630 nm) [3, 18]: 0.32
- turbidity (630 nm) [3, 19]: 0.298
- turbidity (630 nm) [3, 20]: 0.290
- turbidity (630 nm) [3, 21]: 0.274
- turbidity (630 nm) [4, 12]: 0.564
- turbidity (630 nm) [4, 13]: 0.559
- turbidity (630 nm) [4, 14]: 0.545
- turbidity (630 nm) [4, 15]: 0.515
- turbidity (630 nm) [4, 16]: 0.502
- turbidity (630 nm) [4, 17]: 0.498
- turbidity (630 nm) [4, 18]: 0.510
- turbidity (630 nm) [4, 19]: 0.510
- turbidity (630 nm) [4, 20]: 0.507
- turbidity (630 nm) [4, 21]: 0.491
- turbidity (630 nm) [5, 12]: 0.510
- turbidity (630 nm) [5, 13]: 0.508
- turbidity (630 nm) [5, 14]: 0.470
- turbidity (630 nm) [5, 15]: 0.515
- turbidity (630 nm) [5, 16]: 0.488
- turbidity (630 nm) [5, 17]: 0.500
- turbidity (630 nm) [5, 18]: 0.500
- turbidity (630 nm) [5, 19]: 0.472
- turbidity (630 nm) [5, 20]: 0.500
- turbidity (630 nm) [5, 21]: 0.490
- turbidity (630 nm) [6, 12]: 0.534
- turbidity (630 nm) [6, 13]: 0.526
- turbidity (630 nm) [6, 14]: 0.517
- turbidity (630 nm) [6, 15]: 0.510
- turbidity (630 nm) [6, 16]: 0.508
- turbidity (630 nm) [6, 17]: 0.503
- turbidity (630 nm) [6, 18]: 0.503
- turbidity (630 nm) [6, 19]: 0.493
- turbidity (630 nm) [6, 20]: 0.492
- turbidity (630 nm) [6, 21]: 0.498
- turbidity (630 nm) [7, 12]: 0.606
- turbidity (630 nm) [7, 13]: 0.607
- turbidity (630 nm) [7, 14]: 0.597
- turbidity (630 nm) [7, 15]: 0.597
- turbidity (630 nm) [7, 16]: 0.594
- turbidity (630 nm) [7, 17]: 0.590
- turbidity (630 nm) [7, 18]: 0.582
- turbidity (630 nm) [7, 19]: 0.584
- turbidity (630 nm) [7, 20]: 0.574
- turbidity (630 nm) [7, 21]: 0.578
- turbidity (630 nm) [8, 12]: 0.527
- turbidity (630 nm) [8, 13]: 0.520
- turbidity (630 nm) [8, 14]: 0.514
- turbidity (630 nm) [8, 15]: 0.501
- turbidity (630 nm) [8, 16]: 0.488
- turbidity (630 nm) [8, 17]: 0.475
- turbidity (630 nm) [8, 18]: 0.455
- turbidity (630 nm) [8, 19]: 0.409
- turbidity (630 nm) [8, 20]: 0.387
- turbidity (630 nm) [8, 21]: 0.366
- turbidity (630 nm) [9, 12]: 0.577
- turbidity (630 nm) [9, 13]: 0.573
- turbidity (630 nm) [9, 14]: 0.566
- turbidity (630 nm) [9, 15]: 0.565
- turbidity (630 nm) [9, 16]: 0.568
- turbidity (630 nm) [9, 17]: 0.561
- turbidity (630 nm) [9, 18]: 0.568
- turbidity (630 nm) [9, 19]: 0.565
- turbidity (630 nm) [9, 20]: 0.553
- turbidity (630 nm) [9, 21]: 0.538
- turbidity (630 nm) [10, 14]: 0.535
- turbidity (630 nm) [10, 15]: 0.502
- turbidity (630 nm) [10, 16]: 0.490
- turbidity (630 nm) [10, 17]: 0.482
- turbidity (630 nm) [10, 18]: 0.477
- turbidity (630 nm) [10, 19]: 0.470
- turbidity (630 nm) [10, 20]: 0.465
- turbidity (630 nm) [10, 21]: 0.468

SMILES: O=C(O)/C=C/c1ccc(O)cc1 [p-Coumaric acid, p-coumaric acid]
- germination confirmed by turbidity decrease [11]: decreased, thereby to confirm germination
- turbidity (630 nm) [11, 12]: 0.545
- turbidity (630 nm) [11, 13]: 0.523
- turbidity (630 nm) [11, 14]: 0.506
- turbidity (630 nm) [11, 15]: 0.488
- turbidity (630 nm) [11, 16]: 0.475
- turbidity (630 nm) [11, 17]: 0.460
- turbidity (630 nm) [11, 18]: 0.420
- turbidity (630 nm) [11, 19]: 0.392
- turbidity (630 nm) [11, 20]: 0.360
- turbidity (630 nm) [11, 21]: 0.319
